# Measurements from the supplement of paper PMC10307832.
# Tests used:
# Experiment in all cases: relative viability (nuclei count vs DMSO), 5 days (fraction); higher = more cells survive
# BEN = system: BEN
# In short: (§1)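 The day after seeding in 1536-well plates, lung cancer cell lines were treated by pin tool with a single drug, or with a fixed anchor-drug dose together with five library-drug doses (not always all listed) in √10 steps. After 5 days, a combined fix-and-stain solution (final 0.05% Triton X-100, 1% formaldehyde, 1 ug/ml Hoechst) was added. Nuclei counted on 4× images gave relative viability as treated counts over vehicle counts, reported as the median of duplicate plates.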
# CAL-12T = system: CAL-12T
# In short: as §1
# COR-L23 = system: COR-L23
# In short: as §1
# HCC-366 = system: HCC-366
# In short: as §1
# LOU-NH91 = system: LOU-NH91
# In short: as §1
# LU99A = system: LU99A
# In short: as §1
# NCI-H1355 = system: NCI-H1355
# In short: as §1
# NCI-H1437 = system: NCI-H1437
# In short: as §1
# NCI-H1563 = system: NCI-H1563
# In short: as §1
# NCI-H1650 = system: NCI-H1650
# In short: as §1
# NCI-H1651 = system: NCI-H1651
# In short: as §1
# NCI-H1734 = system: NCI-H1734
# In short: as §1
# NCI-H1793 = system: NCI-H1793
# In short: as §1
# NCI-H1975 = system: NCI-H1975
# In short: as §1
# NCI-H2023 = system: NCI-H2023
# In short: as §1
# NCI-H2085 = system: NCI-H2085
# In short: as §1
# NCI-H358 = system: NCI-H358
# In short: as §1
# NCI-H460 = system: NCI-H460
# In short: as §1
# NCI-H838 = system: NCI-H838
# In short: as §1
# SK-LU-1 = system: SK-LU-1
# In short: as §1
smiles,measurement,setting,value
COc1cc2nccc(Oc3ccc(NC(=O)Nc4cc(C)on4)c(Cl)c3)c2cc1OC [Tivozanib] + CS(=O)(=O)CCNCc1ccc(-c2ccc3ncnc(Nc4ccc(OCc5cccc(F)c5)c(Cl)c4)c3c2)o1 [Lapatinib] (partner 2 µM),relative viability,BEN; first compound 0.005 µM,0.476
same,relative viability,BEN; first compound 0.01581 µM,0.839
same,relative viability,BEN; first compound 0.05 µM,0.722
same,relative viability,BEN; first compound 0.5 µM,0.633
same,relative viability,CAL-12T; first compound 0.005 µM,0.563
same,relative viability,CAL-12T; first compound 0.01581 µM,0.752
same,relative viability,CAL-12T; first compound 0.05 µM,0.666
same,relative viability,CAL-12T; first compound 0.5 µM,0.784
same,relative viability,COR-L23; first compound 0.005 µM,0.902
same,relative viability,COR-L23; first compound 0.01581 µM,0.99
same,relative viability,COR-L23; first compound 0.05 µM,0.991
same,relative viability,COR-L23; first compound 0.1581 µM,0.928
same,relative viability,COR-L23; first compound 0.5 µM,0.67
same,relative viability,HCC-366; first compound 0.005 µM,0.991
same,relative viability,HCC-366; first compound 0.01581 µM,1.08
same,relative viability,HCC-366; first compound 0.05 µM,1.12
same,relative viability,HCC-366; first compound 0.1581 µM,1.03
same,relative viability,HCC-366; first compound 0.5 µM,0.976
same,relative viability,LOU-NH91; first compound 0.005 µM,0.704
same,relative viability,LOU-NH91; first compound 0.01581 µM,0.772
same,relative viability,LOU-NH91; first compound 0.05 µM,0.758
same,relative viability,LOU-NH91; first compound 0.1581 µM,0.62
same,relative viability,LOU-NH91; first compound 0.5 µM,0.794
same,relative viability,LU99A; first compound 0.005 µM,0.914
same,relative viability,LU99A; first compound 0.01581 µM,0.924
same,relative viability,LU99A; first compound 0.05 µM,0.967
same,relative viability,LU99A; first compound 0.5 µM,0.919
same,relative viability,NCI-H1355; first compound 0.005 µM,0.894
same,relative viability,NCI-H1355; first compound 0.01581 µM,0.941
same,relative viability,NCI-H1355; first compound 0.05 µM,1
same,relative viability,NCI-H1355; first compound 0.5 µM,0.92
same,relative viability,NCI-H1437; first compound 0.005 µM,0.771
same,relative viability,NCI-H1437; first compound 0.01581 µM,0.8
same,relative viability,NCI-H1437; first compound 0.05 µM,0.777
same,relative viability,NCI-H1437; first compound 0.1581 µM,0.824
same,relative viability,NCI-H1437; first compound 0.5 µM,0.708
same,relative viability,NCI-H1563; first compound 0.005 µM,0.848
same,relative viability,NCI-H1563; first compound 0.01581 µM,0.985
same,relative viability,NCI-H1563; first compound 0.05 µM,0.938
same,relative viability,NCI-H1563; first compound 0.1581 µM,0.856
same,relative viability,NCI-H1563; first compound 0.5 µM,0.796
same,relative viability,NCI-H1650; first compound 0.005 µM,0.707
same,relative viability,NCI-H1650; first compound 0.01581 µM,0.845
same,relative viability,NCI-H1650; first compound 0.05 µM,0.836
same,relative viability,NCI-H1650; first compound 0.1581 µM,0.717
same,relative viability,NCI-H1650; first compound 0.5 µM,0.721
same,relative viability,NCI-H1651; first compound 0.005 µM,0.744
same,relative viability,NCI-H1651; first compound 0.01581 µM,0.864
same,relative viability,NCI-H1651; first compound 0.05 µM,0.863
same,relative viability,NCI-H1651; first compound 0.1581 µM,0.653
same,relative viability,NCI-H1651; first compound 0.5 µM,0.634
same,relative viability,NCI-H1734; first compound 0.005 µM,1.03
same,relative viability,NCI-H1734; first compound 0.01581 µM,1.05
same,relative viability,NCI-H1734; first compound 0.05 µM,1.17
same,relative viability,NCI-H1734; first compound 0.1581 µM,0.814
same,relative viability,NCI-H1734; first compound 0.5 µM,1.01
same,relative viability,NCI-H1793; first compound 0.005 µM,0.619
same,relative viability,NCI-H1793; first compound 0.01581 µM,0.478
same,relative viability,NCI-H1793; first compound 0.05 µM,0.696
same,relative viability,NCI-H1793; first compound 0.5 µM,0.867
same,relative viability,NCI-H1975; first compound 0.005 µM,0.792
same,relative viability,NCI-H1975; first compound 0.01581 µM,0.871
same,relative viability,NCI-H1975; first compound 0.05 µM,0.864
same,relative viability,NCI-H1975; first compound 0.1581 µM,0.755
same,relative viability,NCI-H1975; first compound 0.5 µM,0.723
same,relative viability,NCI-H2023; first compound 0.005 µM,0.731
same,relative viability,NCI-H2023; first compound 0.01581 µM,0.97
same,relative viability,NCI-H2023; first compound 0.05 µM,0.878
same,relative viability,NCI-H2023; first compound 0.1581 µM,0.634
same,relative viability,NCI-H2023; first compound 0.5 µM,0.768
same,relative viability,NCI-H2085; first compound 0.005 µM,0.66
same,relative viability,NCI-H2085; first compound 0.01581 µM,0.769
same,relative viability,NCI-H2085; first compound 0.05 µM,0.774
same,relative viability,NCI-H2085; first compound 0.1581 µM,0.579
same,relative viability,NCI-H2085; first compound 0.5 µM,0.627
same,relative viability,NCI-H358; first compound 0.005 µM,0.476
same,relative viability,NCI-H358; first compound 0.01581 µM,0.563
same,relative viability,NCI-H358; first compound 0.05 µM,0.479
same,relative viability,NCI-H358; first compound 0.1581 µM,0.435
same,relative viability,NCI-H358; first compound 0.5 µM,0.499
same,relative viability,NCI-H460; first compound 0.005 µM,0.889
same,relative viability,NCI-H460; first compound 0.01581 µM,1
same,relative viability,NCI-H460; first compound 0.05 µM,0.979
same,relative viability,NCI-H460; first compound 0.1581 µM,1.12
same,relative viability,NCI-H460; first compound 0.5 µM,0.948
same,relative viability,NCI-H838; first compound 0.005 µM,0.933
same,relative viability,NCI-H838; first compound 0.01581 µM,0.913
same,relative viability,NCI-H838; first compound 0.05 µM,1.01
same,relative viability,NCI-H838; first compound 0.5 µM,0.87
same,relative viability,SK-LU-1; first compound 0.005 µM,0.827
same,relative viability,SK-LU-1; first compound 0.01581 µM,0.809
same,relative viability,SK-LU-1; first compound 0.05 µM,0.895
same,relative viability,SK-LU-1; first compound 0.1581 µM,0.704
same,relative viability,SK-LU-1; first compound 0.5 µM,0.738
